Tested on: ornithine decarboxylase (ODC)
Assay: ODC assay: inhibition of TPA induction of ornithine decarboxylase (retinoid-like activity)
Type: biochemical
Conditions: concentration of the test compound which causes 80% inhibition in the ODC assay (TPA-induced ODC)
Source text: The retinoic acid-like activity of these compounds is confirmed through the classic measure of retinoic acid activity involving the effects of retinoic acid on ornithine decarboxylase. The original work on the correlation between retinoic acid and decrease in cell proliferation was done by Verma & Boutwell, Cancer Research, 1977, 37,2196-2201. That reference discloses that ornithine decarboxylase (ODC) activity increased precedent to polyamine biosynthesis. It has been established elsewhere that increases in polyamine synthesis can be correlated or associated with cellular proliferation. Thus, if ODC activity could be inhibited, cell hyperproliferation could be modulated. Although all cases for ODC activity increases are unknown, it is known that 12-0-tetradecanoylphorbol-13-acetate (TPA) induces ODC activity. Retinoic acid inhibits this induction of ODC activity by TPA. […] Activity of exemplary compounds of the present invention in the above-described ODC assay is disclosed in Table 2 which provides the IC80 concentration for the respective exemplary compound. ("IC80 " is that concentration of the test compound which causes 80% inhibition in the ODC assay. By analogy, "IC60, for example, is that concentration of the test compound which causes 60% inhibition in the ODC assay.)

IC80 conc [nmols] | SMILES
7.29 | CCOC(=O)c1ccc(C#Cc2ccc3c(c2)C(C)(C)CC[C@@H]3O[C@@H]2CCCCO2)cc1 (relative stereo) [Compound 13, Ethyl 4-[[5,6,7,8-tetrahydro-5(SR)-(2'(RS)-tetrahydropyranyloxy)-8,8-dimethylnaphth-2-yl]ethynyl]benzoate]
< 3 | CC1(C)CC[C@H](O[C@H]2CCCCO2)c2ccc(C#Cc3ccc(C(=O)O)cc3)cc21 (relative stereo) [Compound 35]
0.35 | CCOC(=O)c1ccc(C#Cc2ccc3c(c2)[C@H](O[C@@H]2CCCCO2)CCC3(C)C)nc1 (relative stereo) [Compound 17, Ethyl 6-[[5,6,7,8-tetrahydro-5(RS)-(2'(RS)-tetrahydropyranyloxy)-8,8-dimethylnaphth-3-yl]ethynyl]nicotinate]
0.81 | COCOC1CCC(C)(C)c2ccc(C#Cc3ccc(C(=O)O)cc3)cc21 (stereo not drawn) [Compound 43]
3.83 | CCOC(=O)c1ccc(C#Cc2ccc3c(c2)C(OC2CCCCC2)CCC3(C)C)cc1 (stereo not drawn) [Compound 6, Ethyl 4-[(5-cyclohexyloxy-5,6,7,8-tetrahydro-8,8-di-methyl-naphth-3-yl)ethynyl]benzoate]
18.70 | CC1(C)CC[C@@H](O[C@@H]2CCCCO2)c2cc(C#Cc3ccc(C(=O)O)cn3)ccc21 (relative stereo) [Compound 36]
2.20 | CCOC(=O)c1ccc(C#Cc2ccc3c(c2)[C@H](O[C@H]2CCCCO2)CCC3(C)C)nc1 (relative stereo) [Compound 18]
0.15 | CCOC(=O)c1ccc(C#Cc2ccc3c(c2)C(C)(C)CCC3SC(C)=O)cc1 (stereo not drawn) [Compound 143, Ethyl 4-[(5,6,7,8-tetrahydro-8,8-dimethyl-5-thioacetylnaphth-2-yl)ethynyl]benzoate]
3.18 | CCOC(=O)c1ccc(C#Cc2ccc3c(c2)C(O)CCC3(C)C)cc1 (stereo not drawn) [Compound 10, Ethyl 4-[(5,6,7,8-tetrahydro-5-hydroxy-8,8-dimethylnaphth-3-yl)ethynyl]benzoate]
2.80 | CCOC(=O)c1ccc(C#Cc2ccc3c(c2)C(C)(C)CC[C@@H]3O[C@H]2CCCCO2)cc1 (relative stereo) [Compound 14]
4.20 | CC1(C)CC[C@H](O[C@@H]2CCCCO2)c2ccc(C#Cc3ccc(C(=O)O)cc3)cc21 (relative stereo) [Compound 32, 4-[[5,6,7,8-tetrahydro-5(SR)-(2'(RS)-tetrahydropyranyloxy)-8,8-dimethylnaphth-2-yl]ethynyl]benzoic acid]
1.0 | CCOC(=O)CC1(O)CCC(C)(C)c2ccc(C#Cc3ccc(C(=O)OCC)cc3)cc21 (stereo not drawn) [Compound 119, Ethyl 4-[(5-hydroxy-8,8-dimethyl-5-carhoethoxymethyl-5,6,7,8-tetrahydronapth-3-yl)ethynyl]benzoate]
0.40 | CCOC(=O)c1ccc(C#Cc2ccc3c(c2)C(OCOC)CCC3(C)C)cc1 (stereo not drawn) [Compound 12]
0.09 | CCOC(=O)c1ccc(C#Cc2ccc3c(c2)[C@H](O[C@@H]2CCCCO2)CCC3(C)C)cc1 (relative stereo) [Compound 15, Ethyl 4-[[5,6,7,8-tetrahydro-5 (RS)-(2'(RS)-tetrahydropyranyloxy)-8,8-dimethylnaphth-3-yl]ethynyl]benzoate]
0.66 | CC1(C)CCC(O)c2ccc(C#Cc3ccc(C(=O)O)cc3)cc21 (stereo not drawn) [Compound 42, 4-[(5,6,7,8-tetrahydro-5-hydroxy-8,8-dimethylnaphth-2-yl)ethynyl]benzoic acid]
9.30 | CC1(C)CCC(O)c2cc(C#Cc3ccc(C(=O)O)cc3)ccc21 (stereo not drawn) [Compound 41, 4-[(5,6,7,8-tetrahydro-5-hydroxy-8,8-dimethylnaphth-3-yl)ethynyl]benzoic acid]
0.60 | CCOC(=O)c1ccc(C#Cc2ccc3c(c2)[C@H](O[C@H]2CCCCO2)CCC3(C)C)cc1 (relative stereo) [Compound 16, Ethyl 4-[[5,6,7,8-tetrahydro-5(RS)-(2'(SR)-tetrahydropyranyloxy)-8,8-dimethylnaphth-3-yl]ethynyl]benzoate]
0.08 | CC1(C)CC[C@@H](O[C@@H]2CCCCO2)c2cc(C#Cc3ccc(C(=O)O)cc3)ccc21 (relative stereo) [Compound 33]
2.30 | CC1(C)CC[C@@H](O[C@H]2CCCCO2)c2cc(C#Cc3ccc(C(=O)O)cc3)ccc21 (relative stereo) [Compound 34, 4-[[5,6,7,8-tetrahydro-5(RS)-(2'(SR)-tetrahydropyranyloxy)-8,8-dimethylnaphth-3-yl]ethynyl]benzoic acid]
0.91 | CCOC(=O)c1ccc(C#Cc2ccc3c(c2)C(C)(C)CCC3O)cc1 (stereo not drawn) [Compound 9, Ethyl 4-[(5,6,7,8-tetrahydro-5-hydroxy-8,8-dimethyl-naphth-2-yl)ethynyl]benzoate]
1.33 | CCOC(=O)CC1(O)CCC(C)(C)c2cc(C#Cc3ccc(C(=O)OCC)cc3)ccc21 (stereo not drawn) [Compound 113, Ethyl 4-[(5,6,7,8-tetrahydro-5-hydroxy-8,8-dimethyl-5-carboethoxymethylnaphth-2-yl)ethynyl]benzoate]

SMILES | IC80 conc [nmols]
CCOC(=O)c1ccc(C#Cc2ccc3c(c2)C(C)(C)CCC3O[Si](C)(C)C)cc1 (stereo not drawn) [Compound 111, Ethyl 4-[(5,6,7,8-tetrahydro-8,8-dimethyl-5-trimethylsiloxynaphth-2-yl)ethynyl]benzoate] | 3.40
CCOC(=O)c1ccc(C#Cc2ccc3c(c2)C(C)(C)CCC3(C#N)O[Si](C)(C)C)cc1 (stereo not drawn) [Compound 107, Ethyl 4-[(5-cyano-5,6,7,8-tetrahydro-8,8-dimethyl-5-trimethylsiloxynaphth-2-yl)ethynyl]benzoate] | 1.43
CCOC(=O)CC1(O)CCC(C)(C)c2cc(C#Cc3ccc(C(=O)OCC[Si](C)(C)C)cc3)ccc21 (stereo not drawn) [Compound 117, Trimethylsilylethyl 4-[(5,6,7,8-tetrahydro-5-hydroxy-8,8-dimethyl-5-carboethoxymethylnaphth-2-yl)ethynyl]benzoate] | 8.60
